Data reported in ChEMBL document CHEMBL5550210, “Discovery of Novel α,β-Unsaturated Amide Derivatives as Candidate Antifungals to Overcome Fungal Resistance” (J Med Chem, 2024).
≈ marks a conversion by molar mass, not a printed value. Calls of active or inactive are those of the source. The rule behind the calls is not given here.

Tests used:
Candida albicans [1] = assay: Antifungal activity against Candida albicans CPCC400616 assessed as inhibition of fungal growth by CLSI protocol based microdilution method; assay type: functional
Candida tropicalis = assay: Antifungal activity against Candida tropicalis CGMCC 2.3739 assessed as inhibition of fungal growth by CLSI protocol based microdilution method; assay type: functional
Candida albicans [2] = assay: Antifungal activity against fluconazole-resistant Candida albicans 904 assessed as downregulation of CDR2 gene expression at 16 ug/ml incubated for 16 hrs by RT-PCR analysis; assay type: functional, organism-based; settings: dose 16.0 µg/ml
[3] = Half life in mouse plasma measured at 180 mins; assay type: ADME, cell-free
Candida albicans [4] = assay: Antifungal activity against fluconazole-resistant Candida albicans 904 assessed as increase in intracellular fluorescence intensity at 32 ug/ml incubated for 4 hrs by fluorescence inverted microscopic analysis; assay type: functional, organism-based; settings: dose 32.0 µg/ml
Candida albicans [5] = assay: Antifungal activity against fluconazole-resistant Candida albicans 17 assessed as inhibition of fungal growth by CLSI based microdilution method; assay type: functional
Candida albicans [6] = assay: Antifungal activity against fluconazole-resistant Candida albicans 904 assessed as downregulation of CPH1 gene expression at 16 ug/ml incubated for 12 hrs by RT-PCR analysis; assay type: functional, organism-based; settings: dose 16.0 µg/ml
Candida albicans [7] = assay: Antifungal activity against fluconazole-resistant Candida albicans 904 assessed as inhibition of fungal growth by CLSI based microdilution method; assay type: functional
[8] = biological target: T1, Lanosterol 14-alpha demethylase (Candida albicans (strain SC5314 / ATCC MYA-2876) (Yeast), UniProt P10613); assay: Inhibition of CYP51 in Candida albicans SC5314 assessed as increase in lanosterol level at 0.031 ug/ml incubated for 24 hrs by GC-MS analysis relative to control; settings: at 0.031 µg/mL
[9] = biological target: T1, Lanosterol 14-alpha demethylase; assay: Inhibition of CYP51 in Candida albicans SC5314 assessed as reduction in ergosterol content at 0.031 ug/ml incubated for 24 hrs by GC-MS analysis relative to control; settings: at 0.031 µg/mL
Candida albicans [10] = assay: Antifungal activity against fluconazole-resistant Candida albicans 904 assessed as downregulation of ERG11 gene expression at 16 ug/ml incubated for 16 hrs by RT-PCR analysis; assay type: functional, organism-based; settings: dose 16.0 µg/ml
Candida albicans [11] = assay: Antifungal activity against fluconazole-resistant Candida albicans 901 assessed as inhibition of fungal growth by CLSI based microdilution method; assay type: functional
J774.A1 = assay: Cytotoxicity against mouse J774.A1 cells assessed as inhibition of cell growth incubated for 72 hrs by MTT assay; assay type: functional, cell-based; settings: J774.A1, 72 h
Candida albicans [12] = assay: Antifungal activity against Candida albicans CPCC400616 assessed as downregulation of ALS3 gene expression at 2 ug/ml incubated for 12 hrs by RT-PCR analysis; assay type: functional, organism-based; settings: dose 2.0 µg/ml
Candida albicans [13] = assay: Antifungal activity against fluconazole-resistant Candida albicans 904 assessed as downregulation of CDR1 gene expression at 16 ug/ml incubated for 16 hrs by RT-PCR analysis; assay type: functional, organism-based; settings: dose 16.0 µg/ml
Candida albicans [14] = assay: Antifungal activity against fluconazole-resistant Candida albicans CaR assessed as inhibition of fungal growth by CLSI based microdilution method; assay type: functional
[15] = Acute toxicity in Kunming male mouse assessed as kidney damage at 100 mg/kg,po administrated for 7 days by hematoxylin and eosin staining based microscopic analysis; assay type: organism-based; settings: in vivo, 168 h, time 7 day
Candida albicans [16] = assay: Antifungal activity against fluconazole-resistant Candida albicans 904 infected ICR mouse model assessed as reduction in fungal burden in kidney at 10 to 20 mg/kg,ip administration for 5 days; assay type: functional, organism-based; settings: dose 10-20 mg/kg, time 5.0 day
[17] = Acute toxicity in Kunming mouse assessed as animal death at 1000 mg/kg,po administrated for 7 days; assay type: organism-based; settings: in vivo, 168 h, time 7 day
[18] = Oral bioavailability in Sprague-Dawley rat at 5 mg/kg by LC-MS/MS analysis; assay type: ADME, organism-based; settings: in vivo
Candida albicans [19] = assay: Antifungal activity against fluconazole-resistant Candida albicans 904 infected ICR mouse model assessed as median survival time at 20 mg/kg,ip administration for 14 days; assay type: functional; settings: time 14 day
Candida albicans [20] = assay: Antifungal activity against Candida albicans SC5314 assessed as leakage of endogenous substances at 16 ug/ml incubated for 24 hrs by transmission electron microscopic analysis; assay type: functional, organism-based; settings: dose 16.0 µg/ml
[21] = Subacute toxicity in Kunming mouse assessed as animal death at 100 mg/kg,po administrated once daily for 14 days; assay type: organism-based; settings: in vivo, 336 h, time 14 day
[22] = Half life in Sprague-Dawley rat at 2 mg/kg,iv by LC-MS/MS analysis; assay type: ADME, organism-based; settings: in vivo
Candida albicans [23] = assay: Fungicidal activity against fluconazole-resistant Candida albicans 904 assessed as reduction in colony forming units at 32 times MIC incubated for 24 hrs by time-kill curve assay; assay type: functional
Candida albicans [24] = assay: Antifungal activity against Candida albicans SC5314 assessed as fungal cell membrane injury at 16 ug/ml incubated for 24 hrs by transmission electron microscopic analysis; assay type: functional, organism-based; settings: dose 16.0 µg/ml
[25] = Acute toxicity in Kunming female mouse assessed as kidney damage at 100 mg/kg,po administrated for 7 days by hematoxylin and eosin staining based microscopic analysis; assay type: organism-based; settings: in vivo, 168 h, time 7 day
[26] = MRTinfinity in Sprague-Dawley rat at 5 mg/kg,po by LC-MS/MS analysis; assay type: ADME, organism-based; settings: in vivo
[27] = Acute toxicity in Kunming mouse assessed as change in body weight at 1000 mg/kg,po administrated for 7 days; assay type: organism-based; settings: in vivo, 168 h, time 7 day
[28] = Clearance in Sprague-Dawley rat at 2 mg/kg,iv by LC-MS/MS analysis; assay type: ADME, organism-based; settings: in vivo
[29] = Acute toxicity in Kunming mouse assessed as increase in body weight at 100 mg/kg,po administrated once daily for 14 days; assay type: organism-based; settings: in vivo, 336 h, time 14 day
[30] = Subacute toxicity in Kunming mouse assessed as behavioral change at 100 mg/kg,po administrated once daily for 14 days; assay type: organism-based; settings: in vivo, 336 h, time 14 day
[31] = AUC (0 to infinity) in Sprague-Dawley rat at 2 mg/kg,iv by LC-MS/MS analysis; assay type: ADME, organism-based; settings: in vivo
Candida albicans [32] = assay: Antifungal activity against fluconazole-resistant Candida albicans 904 infected ICR mouse model assessed as median survival time at 10 mg/kg,ip administration for 14 days; assay type: functional; settings: time 14 day
Candida albicans [33] = assay: Antifungal activity against Candida albicans SC5314 infected ICR mouse model assessed as reduction in fungal burden in kidney at ip administration for 5 days; assay type: functional, organism-based; settings: time 5.0 day
[34] = Acute toxicity in Kunming female mouse assessed as liver damage at 100 mg/kg,po administrated for 7 days by hematoxylin and eosin staining based microscopic analysis; assay type: organism-based; settings: in vivo, 168 h, time 7 day
[35] = Acute toxicity in Kunming mouse assessed as behavioral change at 1000 mg/kg,po administrated for 7 days; assay type: organism-based; settings: in vivo, 168 h, time 7 day
[36] = Tmax in Sprague-Dawley rat at 5 mg/kg,po by LC-MS/MS analysis; assay type: ADME, organism-based; settings: in vivo
[37] = Volume of distribution at steady state in Sprague-Dawley rat at 2 mg/kg,iv by LC-MS/MS analysis; assay type: ADME, organism-based; settings: in vivo, read-out: Vdss
[38] = AUC (0 to infinity) in Sprague-Dawley rat at 5 mg/kg,po by LC-MS/MS analysis; assay type: ADME, organism-based; settings: in vivo
[39] = Half life in Sprague-Dawley rat at 5 mg/kg,po by LC-MS/MS analysis; assay type: ADME, organism-based; settings: in vivo
[40] = MRTinfinity in Sprague-Dawley rat at 2 mg/kg,iv by LC-MS/MS analysis; assay type: ADME, organism-based; settings: in vivo

T1 sequence (P10613 whole entry): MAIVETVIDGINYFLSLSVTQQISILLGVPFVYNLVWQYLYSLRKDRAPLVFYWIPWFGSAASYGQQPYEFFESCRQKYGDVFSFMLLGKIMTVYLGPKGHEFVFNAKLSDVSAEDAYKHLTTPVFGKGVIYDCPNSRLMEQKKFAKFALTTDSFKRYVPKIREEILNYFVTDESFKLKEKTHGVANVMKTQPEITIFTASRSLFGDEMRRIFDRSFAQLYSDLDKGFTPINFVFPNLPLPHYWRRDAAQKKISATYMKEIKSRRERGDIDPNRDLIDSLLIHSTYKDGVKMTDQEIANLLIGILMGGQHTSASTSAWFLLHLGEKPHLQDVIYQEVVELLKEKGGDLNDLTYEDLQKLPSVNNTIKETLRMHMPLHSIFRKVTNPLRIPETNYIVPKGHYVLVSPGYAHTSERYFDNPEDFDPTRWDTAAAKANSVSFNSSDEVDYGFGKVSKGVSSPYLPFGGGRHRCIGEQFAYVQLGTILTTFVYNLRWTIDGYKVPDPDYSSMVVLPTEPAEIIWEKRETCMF

Which results are given for O=C(/C=C/c1ccc(COC(Cn2ccnc2)c2ccc(Cl)cc2Cl)cc1)Nc1ccc(Cl)cc1Cl (stereo not drawn)?
MIC (Candida albicans [1]): 0.06 µg/mL (≈ 0.107 µM); MIC (Candida tropicalis): 2 µg/mL (≈ 3.56 µM); Activity (Candida albicans [2]): Active; half-life [3]: > 6 h; Activity (Candida albicans [4]): Active; MIC (Candida albicans [5]): 0.25 µg/mL (≈ 0.445 µM); Activity (Candida albicans [6]): Active; MIC (Candida albicans [7]): 1 µg/mL (≈ 1.78 µM); inhibition (INH) [8]: Active; inhibition (INH) [9]: 1.25%; Activity (Candida albicans [10]): Active; MIC (Candida albicans [11]): 1 µg/mL (≈ 1.78 µM); IC50 (J774.A1): 24.6 µM; Activity (Candida albicans [12]): Active; Activity (Candida albicans [13]): Active; MIC (Candida albicans [14]): 1 µg/mL (≈ 1.78 µM)

With CCCCNC(=O)/C=C/c1ccc(COC(Cn2ccnc2)c2ccc(Cl)cc2Cl)cc1 (stereo not drawn) as the molecule, how does the Activity [15] read?
Its Activity is “Toxic”.

What about the MIC (Candida albicans [1]) of the same molecule?
Its MIC is 0.03 µg/mL (≈ 0.0635 µM).

And the MIC (Candida tropicalis)?
Its MIC is 64 µg/mL (≈ 135 µM).

What about the Activity (Candida albicans [16]) of the same molecule?
Its Activity is “Active”.

What about the Activity [17] of the same molecule?
The Activity was “Non-Toxic”.

What about the bioavailability [18] of the same molecule?
Its bioavailability is 12.8%.

What about the Activity (Candida albicans [2]) of the same molecule?
The Activity was “Active”.

What about the half-life [3] of the same molecule?
The half-life was over 6 h.

And the MST (Candida albicans [19])?
Its MST is 13.52 days.

What about the Activity (Candida albicans [20]) of the same molecule?
The Activity was “Active”.

What about the Activity [21] of the same molecule?
The Activity was “Non-Toxic”.

And the Activity (Candida albicans [4])?
Its Activity is “Active”.

And the half-life [22]?
The half-life was 1.72 h.

What about the Activity (Candida albicans [23]) of the same molecule?
Its Activity is 2 log10CFU/ml.

What about the MIC (Candida albicans [5]) of the same molecule?
The MIC was 4 µg/mL (≈ 8.47 µM).

What about the Activity (Candida albicans [24]) of the same molecule?
The Activity was “Active”.

And the Activity (Candida albicans [6])?
The Activity was “Active”.

And the Activity [25]?
Its Activity is “Non-Toxic”.

What about the MIC (Candida albicans [7]) of the same molecule?
Its MIC is 1 µg/mL (≈ 2.12 µM).

And the “inhibition (INH)” value [8]?
Its value is “Active”.

What about the MRT inf [26] of the same molecule?
Its MRT inf is 1.93 h.

And the “inhibition (INH)” value [9]?
The value was 0.67%.

And the Activity (Candida albicans [10])?
Its Activity is “Active”.

What about the Activity [27] of the same molecule?
Its Activity is “Non-Toxic”.

And the clearance [28]?
The clearance was 23.7 mL/min/kg.

What about the MIC (Candida albicans [11]) of the same molecule?
The MIC was 1 µg/mL (≈ 2.12 µM).

What about the IC50 (J774.A1) of the same molecule?
The IC50 was 29.4 µM.

What about the Activity (Candida albicans [12]) of the same molecule?
Its Activity is “Active”.

What about the Activity [29] of the same molecule?
The Activity was “Toxic”.

What about the Activity [30] of the same molecule?
Its Activity is “Non-Toxic”.

What about the Activity (Candida albicans [13]) of the same molecule?
Its Activity is “Active”.

What about the AUC(0-inf) [31] of the same molecule?
The AUC(0-inf) was 1410 ng·h/mL.

And the MST (Candida albicans [32])?
Its MST is 10 days.

What about the MIC (Candida albicans [14]) of the same molecule?
Its MIC is 1 µg/mL (≈ 2.12 µM).

And the Activity (Candida albicans [33])?
Its Activity is “Dose-Dependent Effect”.

What about the Activity [34] of the same molecule?
Its Activity is “Toxic”.

What about the Activity [35] of the same molecule?
The Activity was “Non-Toxic”.

And the Tmax [36]?
The Tmax was 1 h.

What about the Vd [37] of the same molecule?
The Vd was 1.76 L/kg.

And the AUC(0-inf) [38]?
Its AUC(0-inf) is 452 ng·h/mL.

And the half-life [39]?
Its half-life is 1.23 h.

And the MRT inf [40]?
Its MRT inf is 1.24 h.
